From patent USRE40594E1, “Inhibitors of the bitter taste response” (Mount Sinai School of Medicine of New York University, priority 1998, dated 2008) come the findings set out here.

Entries after “also recorded” stand apart in the source; their conditions may differ.

For assay [1], the system named is bovine taste receptor cell membranes (taste receptors) with transducin. Put plainly: G protein activation assay (trypsin sensitivity): activation of transducin by bitter tastant plus taste membranes. Type of assay: biochemical, Bovine (Bos primigenius). The source says: Taste receptor is contacted with gustducin or transducin and tastant, in the presence or absence of test inhibitor, under conditions suitable for activation of the G-protein present. […] In specific non-limiting embodiments, a subunits of transducin or gustducin may be combined with βγ subunits prior to this step, as set forth above. To the reaction mixture comprising taste receptors and gustducin or transducin, test inhibitor and/or bitter tastant may be added, and the resulting solution incubated to permit interaction of the elements.
In preferred embodiments, activation is assessed by a trypsin digestion assay. […] In a specific, non-limiting example, to perform a trypsin digestion assay according to the invention, TPCK-treated trypsin (1:25 trypsin to total protein in the reaction mixture) may be added, and the digestion may be performed at room temperature for about 15 minutes and stopped by adding soybean trypsin inhibitor (6:1 mol/mol inhibitor to trypsin). […] The separated polypeptides may then be transferred by electro-blotter to a poly (vinylidene difluoride) membrane blocked by the addition of 5% BLOTTO [50 mM Tris-HCI, pH 7.4/100 mM NaCl/5% nonfat dry milk], (30 min). G-protein peptides may then be visualized by binding of antibody directed toward transducin or gustducin, followed, for example, by binding of a detectably labeled secondary antibody. If a horseradish peroxidase-labeled secondary antibody is used, binding may be visualized by developing with bicinchoninic acid staining reagents and exposure to x-ray film.
G Protein Activation Assays. Bovine (Bos primigenius) tongues were collected fresh from a local slaughterhouse and transported on ice to the laboratory. Circumvallate papillae were hand dissected, frozen in liquid nitrogen, and stored at −80° C. until use. […] The pelleted membranes were rinsed twice, resuspended in homogenization buffer lacking protease inhibitors, and further homogenized by 20 passages through a 25-gauge needle. Aliquots were either flash frozen or stored on ice until use. […] The separated polypeptides were transferred by electro-blotter to a poly (vinylidene difluoride) membrane, which was blocked by the addition of 5% BLOTTO [50 mM Tris-HCI, pH 7.4/100 mM NaCl/5% nonfat dry milk], (30 min), then transducin peptides were visualized by binding of transducin antiserum and horseradish peroxidase-labeled goat anti-rabbit secondary antibody, followed by developing with bicinchoninic acid staining reagents from Bio-Rad and exposure to x-ray film.
Chemicals. All bitter tastant and buffer chemicals were of the highest purity available and were purchased either from Sigma or Boehringer Mannheim, unless otherwise noted. […] The rabbit polyclonal antitransducin antibody was a kind gift of Mel Simon and John Watson (California Institute of Technology, Pasadena, Calif.).

The test system of assay [2] is glossopharyngeal nerve responses of C57BL/6J mice. In words: Glossopharyngeal nerve recording on lingual stimulation with tastants. Type of assay: in vivo. Conditions: inhibitor 0.1 mM. As to the method:
Nerve Recording. Glossopharyngeal nerve responses were recorded from male C57BL/6J mice as previously described (Ninomiya, Y., et al., 1997, Am. J. Physiol. (London) 272:R1002-RI006). Each mouse was anesthetized with intraperitoneal injection of sodium pentobarbital (40-50 mg/kg) and maintained at a surgical level of anesthesis with supplemental injections of the drug. The trachea was cannulated, and the mouse was then fixed in the supine position with a head holder to allow dissection of the glossopharyngeal nerve. The hypoglossal nerve was transected bilaterally to prevent inadvertent tongue movements. The right glossopharyngeal nerve was exposed by removal of the digastric muscle and posterior horn of the hyoid bone. The glossopharyngeal nerve was then dissected free from underlying tissues and cut near its entrance to the posterior foramen lacerum. The entire nerve was placed on a silver wire electrode for whole nerve recording. An indifferent electrode was positioned nearby in the wound. […] Whole nerve responses were integrated by using an RMS-DC converter (Hendrick, Tallahassee, Fla.) with a time constant of 0.5 s. For chemical stimulation of the circumvallate and foliate papillae, an incision was made on each side of the animal's face from the comer of the mouth to just above the angle of the jaw, the papillae were exposed, and their trenches opened via slight tension applied through a small suture sewn in the tip of the tongue. Tastant solutions were delivered to the tongue by gravity flow, and flowed over the tongue for a controlled period. The stability of each preparation was monitored by the periodic application of 0.1 M NH4Cl. A recording was considered to be stable when the 0.1 M NH4Cl response magnitudes at the beginning and end of each stimulation series deviated by no more than 15%. Only responses from stable recordings were used in the data analysis. In the analysis of whole nerve responses, the magnitudes of the integrated response at 20, 25, 30, 35. and 40 s after stimulus onset were measured and averaged to generate tonic responses: the tonic response represents the sustained nerve response to continuous tastant stimulation of taste receptor cells. The relative tonic response for each stimulus was obtained by normalization to the response from 0.1 M NH4Cl (the tonic response of NH4Cl was defined as 1.0). Student's t test was used for statistical analysis.

For the compound `Nc1nc2c(ncn2[C@@H]2O[C@H](COP(=O)(O)O)[C@@H](O)[C@H]2O)c(=O)[nH]1` [GMP, reference compound], the “inhibition of in vitro activation of transducin (G-protein) by taste membranes plus bitter compounds, summary statement” value in assay [1] (DEN, QUI and other bitter compounds, concentrations not given) was “did not”. Moreover, the “inhibition of taste membrane activation of transducin in response to other bitter tastants (than DEN)” value in assay [1] (concentrations not given) is listed as “did not inhibit”. Also, the “inhibition of activation of transducin by DEN plus bovine taste receptor membranes” value in assay [1] (inhibitor 0.25, 0.5, 1.25, 2.5, 5.0 mM, DEN 5.0 mM, shift from 32-kDa to 23-kDa fragments, FIG. 1A/1E) is recorded as “does not inhibit; also recorded: did not inhibit”. Further, in assay [2] (1.0 mM ATR, FIGS. 4A-C), the “inhibition of glossopharyngeal nerve responses to atropine” value is “had no effect”. For the same compound, the “inhibition of glossopharyngeal nerve responses to sparteine” value in assay [2] (1.0 mM SPA, FIGS. 4A-C, 4I (P<0.001)) is on record as “had no effect”. Also, in assay [2] (1.0 mM STR, FIGS. 4A-C), the “inhibition of glossopharyngeal nerve responses to strychnine” value was “had no effect”. The “inhibition of glossopharyngeal nerve responses to DEN” value in assay [2] (5.0 mM DEN, FIGS. 4A-C) was “had no effect”. The “inhibition of glossopharyngeal nerve responses to QUI” value in assay [2] (QUI 0.1 and 1.0 mM, FIGS. 4D-F) is listed as “had no effect”.
